From US10858305B2, “Perillyl alcohol-3-bromopyruvate conjugate and methods of treating cancer” (NeOnc Technologies, Inc., priority 2016, dated 2020)

Tested on: MDA-MB-231 triple-negative breast cancer cells
Assay: Subcutaneous MDA-MB-231 xenograft in nude mice
Format: in vivo
Conditions: 5 mg/kg on days 1, 5, 9
Method: The anticancer activity of NEO218 in vivo was investigated next. MDA-MB-231 triple-negative breast cancer cells were subcutaneously implanted into 12 nude mice. After two weeks, the animals were separated into 2 groups for treatment with either vehicle (no drug) or NEO218 (5 mg/kg). Then, NEO218 (or vehicle) was administered on days 1, 5, and 9 (3 doses total, 4 days apart). Tumor growth was measured with calipers every 3 days from day 1 (=start of treatment) until day 13 (end of experiment).
The panels show tumor growth over time for each individual animal.

SMILES: C=C(C)[C@@H]1CC=C(COC(=O)C(=O)CBr)CC1 [NEO218, 3-bromo-2-oxo-propionic acid 4-isopropenyl-cyclohex-1-enylmethyl ester]
- organ toxicity or other side effects: organ toxicity or other side effects were not detected
- tolerability in mice: tolerated this compound quite well
- tumor growth compared with vehicle group: slower tumor growth
- tumor volume at the end of the experiment (day 13, all animals): below 200 cubic millimeters
